The values below come from US20250034164A1, “NOVEL COMPOUND AND COMPOSITION FOR PREVENTING OR TREATING NEUROINFLAMMATORY BRAIN DISEASES COMPRISING SAME AS ACTIVE INGREDIENT” (KOREA INSTITUTE OF OCEAN SCIENCE & TECHNOLOGY, priority 2021, published 2025).

Assay [1] deals with inducible nitric oxide synthase (iNOS). Put plainly: iNOS protein and gene expression in LPS-treated BV-2 cells (Western blot, RT-PCR). The assay is classed as cell-based, mouse. To be noted: LPS 200 ng/ml, 2 to 80 μg/ml, protein 18 hours, gene 6 hours. How it is done: (§1) BV-2 microglia cells were cultured in a humidified 5% CO2 incubator at 37° C. using a Dulbecco's modified Eagle medium supplemented with 5% fetal bovine serum and 1% penicillin/streptomycin at 100 units/mL.
(§2) After culturing for 18 hours, the proteins were identified, and the expression patterns of iNOS and COX-2 proteins were confirmed by performing Western blot using polyclonal antibodies to iNOS and COX-2. For 6 hours after culturing the BV-2 cells by setting the same conditions, the cell supernatant was removed, RNA was identified from the cells, and iNOS and COX-2 genes were analyzed by RT-PCR. As a result, as shown in FIGS. 30(c), 35(c), and 36(c), it could be confirmed that natural product Compound 1 and derivative Compounds 4 and 6 decreased the expression levels of iNOS and COX-2 proteins and genes in a concentration-dependent manner.

For another assay, the system named is IL1-β. As to the kind of experiment: IL1-β gene expression in LPS-stimulated BV-2 microglia cells (RT-PCR). It counts as cell-based, mouse. To be noted: BV-2 cells, pretreated 1 hour at 2 to 80 μg/ml, LPS 200 ng/ml, 6 hours. How it is done:
as §1
(§3) Then, the cells were stimulated with LPS (200 ng/ml). After 6 hours, the cell supernatant was removed, RNA was identified from the cells, and TNF-α, IL1-β, and IL-6 genes were analyzed by RT-PCR. As a result, as shown in FIGS. 30(d), 35(d), and 36(d), it could be confirmed that natural product compound 1 and derivative compounds 4 and 6 decreased the expression levels of TNF-α, IL1-β, and IL-6 genes in a concentration-dependent manner.

Assay [2] concerns cyclooxygenase type 2 (COX-2). Put plainly: COX-2 protein and gene expression in LPS-treated BV-2 cells (Western blot, RT-PCR). To be noted: LPS 200 ng/ml, 2 to 80 μg/ml, protein 18 hours, gene 6 hours. It counts as cell-based, mouse. How it is done:
as §1, §2
On the technique in general: Immunoblotting shows a protein as a band on a membrane.

The test system of a further assay is IL-6. Put plainly: IL-6 gene expression in LPS-stimulated BV-2 microglia cells (RT-PCR). The assay is classed as cell-based, mouse. The following applies: BV-2 cells, pretreated 1 hour at 2 to 80 μg/ml, LPS 200 ng/ml, 6 hours. How it is done:
as §1, §3

Assay [3] has as its system nitric oxide (NO) produced in mouse BV-2 microglia cells stimulated with LPS. Put plainly: NO production inhibition in LPS-stimulated BV-2 microglia cells (Griess reagent). It counts as cell-based. The following applies: LPS 200 ng/ml; for IC50: mouse BV-2 microglia cells, 24 h, read-out: NO inhibitory activity (IC50 value). How it is done:
as §1
In all experiments, the number of cells was 2.5×10^5 cell/ml, the cells were first treated with each of Compounds of Examples 1 to 25 by concentration (2.5 to 200 μg/ml), and LPS was diluted in medium and used at a concentration of 200 ng/ml. A cytotoxicity test was performed using MTT assay, and the MTT assay was performed by performing NO assay and injecting 30 μl of MTT at a concentration of 0.5 mg/ml into the cells in a microplate. After reacting for 2 hours in the incubator, formazan crystals were dissolved in 100 μl of DMSO, and the absorbance was measured using a Vmax microplate reader (Tencan Co., Switzerland) with a wavelength of 540 nm. In order to quantitatively measure the production of nitric oxide (NO), mouse BV-2 microglia cells were prepared in a microplate (96 well), and added with LPS (200 ng/ml) and Compounds by concentration (2.5 to 200 μg/ml). The cells reacted in an incubator for 24 h, and 50 μl of the supernatant reacted with a Griess reagent (a mixed solution of 1% sulfanilamide, 0.1% N-(1-naphthyl)-ethylenediamine dihydrochloride, and 2.5% H3PO4), and then the absorbance was measured using a Vmax 96-well microplate spectrophotometer with a wavelength of 550 nm.
In order to analyze the anti-inflammatory efficacy of Compound of Example 1, the concentration inhibitory effect of nitric oxide (NO) produced in mouse BV-2 microglia cells stimulated with LPS (200 ng/ml), a neuroinflammatory factor, was confirmed.
The neuroinflammation inhibitory effects of Compounds of Examples 2 to 25 were confirmed.
In order to analyze the anti-inflammatory efficacy of Compound 26 of Chemical Formula 2, the concentration inhibitory effect of nitric oxide (NO) produced in mouse BV-2 microglia cells stimulated with LPS (200 ng/ml), a neuroinflammatory factor, was confirmed. Compound 26 of Chemical Formula 2 was purchased from Santa Cruz biotechnology (CAS 79127-35-8) and the experiment was performed. As a result of treating Compound of Chemical Formula 2 at […], it was confirmed that the amount of nitric oxide (NO) was reduced, as shown in FIG. 37A.
Background: Nitrite, measured by Griess reagent, commonly stands in for NO production.

Another assay deals with TNF-α. Put plainly: TNF-α gene expression in LPS-stimulated BV-2 microglia cells (RT-PCR). It counts as cell-based, mouse. The following applies: BV-2 cells, pretreated 1 hour at 2 to 80 μg/ml, LPS 200 ng/ml, 6 hours. How it is done:
as §1, §3

In the case of `O=C1O[C@@H]2OC(CO)=C[C@H]3[C@@H]2C=C[C@@H]13` [Compound 1, (1S,4aS,5R,7aS)-3-(hydroxymethyl)-1,4a,5,7a-tetrahydro-1,5-(epoxymethano)cyclopenta[c]pyran-8-one], the “expression levels of iNOS proteins and genes” value in assay [1] is on record as “decreased”. Further, the “expression levels of IL1-β gene” value with IL1-β is given as “decreased”. Besides, in assay [2], the “expression levels of COX-2 proteins and genes” value was “decreased”. Also, in the assay on IL-6, the “expression levels of IL-6 gene” value was “decreased”. The “amount of nitric oxide (NO)” value in assay [3] (BV-2 cells, treated at 20 to 60 μM (FIG. 30A)) was “reduced”. Further, in assay [3], the IC50 came out at 46.6 µM. In addition, the “expression levels of TNF-α gene” value in the assay on TNF-α was “decreased”.

Consider `O=C(OCC1=C[C@H]2[C@@H]3C=C[C@H]2C(=O)O[C@@H]3O1)c1ccc(Br)cc1` [Compound 4, ((1S,4aS,5R,7aS)-8-oxo-1,4a,5,7a-tetrahydro-1,5-(epoxymethano)cyclopenta[c]pyran-3-yl)methyl 4-bromobenzoate], for which the “expression levels of iNOS proteins and genes” value in assay [1] was “decreased”. Further, the “expression levels of IL1-β gene” value in the assay with IL1-β was “decreased”. Besides, in assay [2], the “expression levels of COX-2 proteins and genes” value is reported as “decreased”. Also, the “expression levels of IL-6 gene” value in the assay on IL-6 is recorded as “decreased”. For the same molecule, in assay [3], the IC50 is 13.3 µM. Moreover, the “expression levels of TNF-α gene” value with TNF-α is on record as “decreased”.

As for `O=CC1=C[C@H]2[C@@H]3C=C[C@H]2C(=O)O[C@@H]3O1` [Compound 6, (1S,4aS,5R,7aS)-8-oxo-1,4a,5,7a-tetrahydro-1,5-(epoxymethano)cyclopenta[c]pyran-3-carbaldehyde], the “expression levels of iNOS proteins and genes” value in assay [1] is “decreased”. Besides, the “expression levels of IL1-β gene” value in the assay with IL1-β was “decreased”. Also, the “expression levels of COX-2 proteins and genes” value in assay [2] was “decreased”. The “expression levels of IL-6 gene” value in the assay with IL-6 was “decreased”. Moreover, in assay [3], the IC50 came out at 4.5 µM. The “expression levels of TNF-α gene” value in the assay on TNF-α was “decreased”.

What is called IC50 is the point on the concentration scale where inhibition reaches its midpoint.
